Data from patent US20030223978A1, “Conjugates of an AMF ligand and a cytotoxic molecule for use in cancer therapy” (priority 1998, published 2003).

Columns and labels:
[1] = tested on: B16-F10 metastatic murine melanoma cell line; assay: Cell toxicity of AMF-doxorubicin conjugate; assay type: cell-based; conditions: approximately 0.3, 3, or 30 μg/ml; 3 (Expt. 1) or 4 days (Expt. 2); increasing concentrations
Procedure: Rabbit PHI is internalized by murine NIH-3T3 fibroblasts (Benlimame et al., 1998, Molec. Biol. Cell 9: 1773-1786) and the ability of the AMF-doxorubicin conjugate to kill metastatic tumor cells was tested with the B16-F10 metastatic murine melanoma cell line. B16-F10 cells were plated at a density of 4,000 cells/cm2 and after 24 hours in culture AMF-doxorubicin conjugate was added at a concentration of approximately 0.3, 3, or 30 μg/ml (FIG. 8). After 3 (Expt. 1) or 4 days (Expt. 2) the cultures were fixed and cells remaining attached to the substrate counted. The number of cells remaining attached to the substrate is presented relative to control cells to which no AMF-doxorubicin was added.

[2] = molecular target: T1, AMF-R (Mus musculus, UniProt Q9R049); assay: Cell surface labeling of viable cells at 4° C. with bAMF and anti-AMF-R; assay type: binding; conditions: viable NIH-3T3 cells, confocal
T1 construct: Confocal imaging of cell surface labeling of viable NIH-3T3 cells at 4° C. with bAMF; endogenous in cells; host or cells: NIH-3T3 fibroblasts (ATCC, a highly spread clone)
Procedure: Cells were plated on glass cover slips 2 days prior to each experiment at a concentration of 30,000 cells/35 mm dish. For AMF-R surface labeling, the cells were incubated in DMEM minus bicarbonate supplemented with 25 mM Hepes pH 7.2 and 2.5% serum for 15 min at 4° C. prior to labeling with anti-AMF-R primary antibody or biotinylated AMF at 4° C. for 30 min. The cells were washed at 4° C. and then fixed with 3% paraformaldehyde in phosphate buffered saline (pH 7.4) supplemented with 0.1 mM Ca++ and 1 mM Mg++ (PBS/CM) for 15 min at room temperature. For caveolin labeling, after AMF-R surface labeling at 4° C. and fixation as above, the cells were permeabilized with 0.2% Triton X-100 for 10 min, then extensively washed with PBS/CM containing 1% BSA. The cells were incubated with rabbit anti-caveolin polyclonal antibodies, washed, and then incubated with FITC goat anti-rat IgM to reveal anti-AMF-R and Texas Red donkey anti-rabbit IgG to reveal anti-caveolin.

[3] = tested on: NIH-3T3 cells; assay: bAMF internalization, immunofluorescence and confocal microscopy; assay type: cell-based, mouse
Procedure: For the AMF internalization studies, NIH-3T3 cells were pulsed with biotinylated AMF (˜250-500 μg/ml) and chased at 37° C. for the indicated periods of time prior to fixation by the addition of precooled (−80° C.) methanol/acetone directly to the cells. […] Disruption of clathrin coated pits and vesicles by cytoplasmic acidification was performed essentially as previously described (Heuser, J. (1989) J. Cell Biol. 108, 401-411). NIH-3T3 cells were pretreated with acidification medium (DMEM containing 5% calf serum and 50 mM MES pH 5.5) for 15 minutes at 37° C. prior to addition of bAMF in acidification medium for one hour at 37° C. To ensure that cellular acidification blocked clathrin-mediated endocytosis, Texas Red transferrin (50 μg/ml) was added to cells in regular or acidification medium for 30 minutes at 37° C. after which the cells were fixed with 3% paraformaldehyde.
After labeling the coverslips were mounted in Airvol (Air Products and Chemicals Inc., Allentown, Pa.) and viewed in a Zeiss Axioskop fluorescent microscope equipped with a 63× Plan Apochromat objective and selective filters. Confocal microscopy was performed with the 60× Nikon Plan Apochromat objective of a dual channel BioRad 600 laser scanning confocal microscope equipped with a krypton/argon laser and the corresponding dichroic reflectors to distinguish fluorescein and Texas Red labeling. Confocal images were printed using a Polaroid TX 1500 video printer.

[4] = tested on: NIH-3T3 cells; assay: bAMF internalization pathway by post-embedding electron microscopy; assay type: cell-based, mouse
Procedure: Post-embedding immunolabeling for AMF-R was performed as previously described (Benlimame, N. et al. (1995) J. Cell Biol. 129, 459-471). Cells grown on petri dishes were rinsed and incubated at 37° C. in Ringer's solution for 15 minutes before fixing in Ringer's solution containing 2% paraformaldehyde and 0.2% glutaraldehyde for 30 minutes at 37° C. The fixed cells were rinsed in PBS/CM, scraped from the petri dish and collected by centrifugation. The cell pellet was post-fixed for 30 minutes with 1% osmium tetroxide in PBS/CM containing 1.5% potassium ferrocyanide (reduced osmium), dehydrated and embedded in LR-White resin. […] The numerical density of gold particles associated with plasma membrane, caveolae, clathrin coated pits and vesicles, smooth tubules and vesicles, and rough ER was determined. The length of the limiting membrane of the indicated organelles was measured using a Sigma-Scan measurement system and the gold particles associated with these organelles counted. […] Control labeling with non-immune rat IgM antibodies was analyzed similarly.
To follow the endocytic pathway of AMF by electron microscopy, biotinylated AMF was internalized as described for the fluorescence studies and detected by postembedding labeling with streptavidin conjugated to 10 nm gold as described above.

T1 sequence (Q9R049 whole entry): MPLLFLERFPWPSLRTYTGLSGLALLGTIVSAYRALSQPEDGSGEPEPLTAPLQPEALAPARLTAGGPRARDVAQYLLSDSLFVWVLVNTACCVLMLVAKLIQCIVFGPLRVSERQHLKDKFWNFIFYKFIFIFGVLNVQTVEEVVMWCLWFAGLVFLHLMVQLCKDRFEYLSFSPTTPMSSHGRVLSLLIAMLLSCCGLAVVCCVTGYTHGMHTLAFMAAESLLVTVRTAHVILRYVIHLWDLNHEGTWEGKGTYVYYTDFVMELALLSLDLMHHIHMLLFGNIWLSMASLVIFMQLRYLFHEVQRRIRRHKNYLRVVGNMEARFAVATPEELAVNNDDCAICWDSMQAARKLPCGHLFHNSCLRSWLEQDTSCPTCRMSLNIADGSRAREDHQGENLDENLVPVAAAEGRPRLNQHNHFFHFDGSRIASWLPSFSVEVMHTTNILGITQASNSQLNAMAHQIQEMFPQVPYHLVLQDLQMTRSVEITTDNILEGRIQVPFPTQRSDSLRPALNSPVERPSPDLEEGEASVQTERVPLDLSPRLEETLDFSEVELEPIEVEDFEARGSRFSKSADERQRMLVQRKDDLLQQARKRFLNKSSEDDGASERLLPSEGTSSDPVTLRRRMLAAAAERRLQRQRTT

Substance | number of cells remaining attached to the substrate relative to control cells [1] | colocalization of cell surface bAMF with anti-AMF-R labeling [2] | localization of internalized bAMF ([3]; 1 hour at 37° C., 10-fold excess unlabeled AMF) | localization of internalized bAMF ([3]; 1 hour at 37° C., medium acidified to pH 5.5 (clathrin-mediated endocytosis disrupted)) | localization of internalized bAMF ([3]; 1 hour pulse at 37° C., regular medium) | localization of internalized bAMF ([3]; two hour pulse, chase of 2 or 4 hours) | localization of bAMF by streptavidin-10 nm gold ([4]; 10 minute pulse at 37° C.) | localization of bAMF by streptavidin-10 nm gold ([4]; 30 minute pulse at 37° C.)
AMF-doxorubicin: commercially available PHI (AMF) conjugated to the cellular toxin doxorubicin by glutaraldehyde mediated crosslinking | progressive toxicity | – | – | – | – | – | – | –
bAMF: Rabbit phosphohexose isomerase (AMF) biotinylated with NHS-LC-biotin | – | high degree of colocalization | localized only to punctate structures | localized to tubules which colocalize with AMF-R tubules | localized to tubular structures which colocalize with AMF-R tubules | accumulation of bAMF labeling in tubular structures which colocalized with AMF-R tubules | localized to cell surface caveolae | localized to caveolae and smooth vesicles
